Here are results for five compounds from article PMC8837781, “Suppression of tumor metastasis by a RECK-activating small molecule” (Scientific Reports, 2022).

The target of test [1] is T1, HDAC1 (Homo sapiens, UniProt Q13547). Kind of test: HDAC1 inhibition assay (details not given). Format: biochemical.
Test [2] has as its target T2, HDAC3 (Homo sapiens, UniProt O15379). Kind of test: HDAC3 inhibition assay (details not given). Format: biochemical.
The target in test [3] is T2, HDAC3. Kind of test: biochemical. Also on record: HDAC inhibition assay, IC50. The settings on record: read-out: HDAC inhibition (HDAC3).
In test [4] the target is T1, HDAC1. Kind of test: biochemical. Also noted: HDAC inhibition assay, IC50. The settings on record: read-out: HDAC inhibition (HDAC1).

Structures are written as SMILES. pIC50: −log10 of the molar value.

T2 sequence (O15379 whole entry): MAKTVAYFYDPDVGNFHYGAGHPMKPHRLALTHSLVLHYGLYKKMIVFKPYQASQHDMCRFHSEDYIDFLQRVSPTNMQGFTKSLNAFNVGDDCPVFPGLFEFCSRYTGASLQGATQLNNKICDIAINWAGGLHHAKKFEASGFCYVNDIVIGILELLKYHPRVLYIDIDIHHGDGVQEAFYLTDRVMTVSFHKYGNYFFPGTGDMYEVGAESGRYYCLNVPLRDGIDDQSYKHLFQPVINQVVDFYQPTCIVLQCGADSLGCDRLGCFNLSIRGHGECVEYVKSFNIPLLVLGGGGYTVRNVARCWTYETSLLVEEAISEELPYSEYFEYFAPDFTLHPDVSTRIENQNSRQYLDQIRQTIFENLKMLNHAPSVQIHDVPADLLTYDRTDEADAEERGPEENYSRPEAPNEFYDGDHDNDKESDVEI
T1 sequence (Q13547 whole entry): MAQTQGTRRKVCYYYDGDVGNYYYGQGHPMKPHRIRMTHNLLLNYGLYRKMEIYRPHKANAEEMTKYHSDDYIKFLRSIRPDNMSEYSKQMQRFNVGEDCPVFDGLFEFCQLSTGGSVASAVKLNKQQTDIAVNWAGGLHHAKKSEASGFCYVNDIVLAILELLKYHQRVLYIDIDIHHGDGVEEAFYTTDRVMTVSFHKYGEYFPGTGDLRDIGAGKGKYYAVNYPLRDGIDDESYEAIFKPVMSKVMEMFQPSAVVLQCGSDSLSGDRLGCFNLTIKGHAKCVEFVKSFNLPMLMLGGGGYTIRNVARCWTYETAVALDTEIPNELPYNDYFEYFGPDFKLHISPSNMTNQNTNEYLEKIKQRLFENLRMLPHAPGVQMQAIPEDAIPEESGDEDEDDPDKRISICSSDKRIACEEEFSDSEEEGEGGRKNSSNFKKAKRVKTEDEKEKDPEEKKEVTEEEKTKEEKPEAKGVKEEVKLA

As for `Cc1ccc(C(=O)Nc2ccccc2N)cc1` [#638, DSK638], the pIC50 in test [1] is roughly 5.30; in test [2], roughly 5.00.
On to `Cc1ccc(NC(=O)c2ccccc2N)cc1` [NTAB], for which the pIC50 in test [3] and in test [4] was less than 4.00 in each case.
Turning to `Cc1ccc(C(=O)Nc2ccccc2O)cc1` [NHPMB], the pIC50 in test [3] and in test [4] was 5.52 throughout.
On to `Cc1ccc(C(=O)Nc2ccccc2)cc1` [NPMB], for which the pIC50 in test [3] and in test [4] was less than 4.00 in each case.
For the compound `Nc1ccccc1NC(=O)c1ccccc1` [NAPB], the pIC50 was 5.30 in test [3] and 5.10 in test [4].
